# Experimental data published in patent US20090069320A1, “Substituted 4-Amino-Quinazoline Compounds with Metabotropic Glutamate Receptor Regulating Activity and Uses Thereof” (Gruenenthal GmbH, priority 2006, published 2009).
# Counter-ions that a name gives are not always drawn. Like-named read-outs stand apart in the source and are kept apart here.
# Biological target: T1, mGluR5 receptor (Sus scrofa, UniProt I3LUI7)
# T1 construct: 450 μg of protein from brain homogenate with 5 nM ^3[H]-MPEP; from tissue; host or cells: pig brain halves without medulla, cerebellum and pons
# T1 sequence (I3LUI7 19-1212): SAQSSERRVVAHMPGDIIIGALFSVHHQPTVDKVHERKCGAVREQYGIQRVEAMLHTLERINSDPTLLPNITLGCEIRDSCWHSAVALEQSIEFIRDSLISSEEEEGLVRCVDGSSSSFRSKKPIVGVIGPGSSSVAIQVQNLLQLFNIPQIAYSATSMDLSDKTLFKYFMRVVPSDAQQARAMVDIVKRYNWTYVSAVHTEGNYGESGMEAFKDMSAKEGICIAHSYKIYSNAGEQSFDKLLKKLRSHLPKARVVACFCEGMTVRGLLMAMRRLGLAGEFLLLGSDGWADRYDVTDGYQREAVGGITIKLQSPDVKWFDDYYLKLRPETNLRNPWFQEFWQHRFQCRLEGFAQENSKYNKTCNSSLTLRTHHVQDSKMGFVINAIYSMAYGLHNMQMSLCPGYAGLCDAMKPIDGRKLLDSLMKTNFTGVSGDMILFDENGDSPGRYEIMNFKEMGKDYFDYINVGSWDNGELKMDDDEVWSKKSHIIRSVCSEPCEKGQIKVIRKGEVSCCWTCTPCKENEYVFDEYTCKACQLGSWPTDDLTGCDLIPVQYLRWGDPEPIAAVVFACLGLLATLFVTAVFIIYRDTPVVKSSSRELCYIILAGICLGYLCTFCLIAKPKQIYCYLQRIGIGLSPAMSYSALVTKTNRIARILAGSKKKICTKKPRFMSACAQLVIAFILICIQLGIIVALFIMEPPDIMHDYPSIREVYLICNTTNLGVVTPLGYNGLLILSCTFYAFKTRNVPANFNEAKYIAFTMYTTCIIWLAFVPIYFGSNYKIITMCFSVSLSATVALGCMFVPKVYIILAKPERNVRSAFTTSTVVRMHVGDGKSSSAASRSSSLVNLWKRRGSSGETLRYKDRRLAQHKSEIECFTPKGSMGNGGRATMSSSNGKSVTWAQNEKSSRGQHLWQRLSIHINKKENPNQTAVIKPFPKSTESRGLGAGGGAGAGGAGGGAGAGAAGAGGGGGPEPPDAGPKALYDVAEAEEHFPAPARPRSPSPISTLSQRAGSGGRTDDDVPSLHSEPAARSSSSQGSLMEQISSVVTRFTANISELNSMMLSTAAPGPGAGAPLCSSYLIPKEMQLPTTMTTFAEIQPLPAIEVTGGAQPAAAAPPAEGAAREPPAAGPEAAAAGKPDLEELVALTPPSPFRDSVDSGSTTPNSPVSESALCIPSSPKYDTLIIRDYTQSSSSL
# Assay: [3H]-MPEP mGluR5 receptor binding assay (pig brain homogenate)
# Settings: 5 nM [3H]-MPEP; for inhibition at 10 µM / % Inhibition of mGluR5 Receptor (pig) [^3H]-MPEP Bond at 10 μM: 10 μM compound; for inhibition at 10 µM: read-out: % Inhibition of mGluR5 Receptor (pig) [^3H]-MPEP Bond at 10 μM
# How it was run: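 Compounds at 10 μM competed with 5 nM [3H]-MPEP for binding to pig brain membranes (450 μg protein) for 60 min at room temperature in pH 8.0 Hepes buffer. Bound radioactivity was collected on glass-fibre filters and read by β-counting, with 10 μM unlabelled MPEP giving non-specific binding.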
# [1] = read-out: IC50 mGluR5 Receptor (pig) [^3H]-MPEP Bond
inhibition at 10 µM,Compound,further results
73%,"O=C(c1ccccc1)N(Cc1cc(-c2ccc3ncnc(NC4CC4)c3c2)ccn1)C1CC1 [Example 813, N-cyclopropyl-N-((4-(4-(cyclopropylamino)quinazolin-6-yl)pyridin-2-yl)methyl)benzamide]",
,"CCCN(Cc1cccc(-c2ccc3ncnc(NC4CC4)c3c2)c1)C(C)=O [Example 887, N-(3-(4-(cyclopropylamino)quinazolin-6-yl)benzyl)-N-propylacetamide hydrochloride]",IC50 [1]: 3.1 µM
89%,"O=C(c1cccc(Br)n1)N(Cc1cccc(-c2ccc3ncnc(NC4CC4)c3c2)c1)C1CC1 [Example 163, 6-bromo-pyridine-2-carboxylic acid cyclopropyl-[3-(4-cyclopropylamino-quinazolin-6-yl)-benzyl]-amide]",
69%,"O=C(CCc1ccccc1)N(Cc1cc(-c2ccc3ncnc(NC4CC4)c3c2)ccc1Cl)C1CC1 [Example 756, N-(2-chloro-5-(4-(cyclopropylamino)quinazolin-6-yl)benzyl)-N-cyclopropyl-3-phenylpropanamide]",
,"CC(=O)N(Cc1cccc(-c2ccc3ncnc(NC4CC4)c3c2)c1)Cc1ccco1 [Example 216, N-[3-(4-cyclopropylamino-quinazolin-6-yl)-benzyl]-N-furan-2-yl-methyl-acetamide]",IC50 [1]: 1.5 µM
34%,"Cc1nc(NC2CC2)c2cc(-c3cccc(CN(C(=O)c4ccc(C(F)(F)F)cc4F)C4CC4)c3)ccc2n1 [Example 454, N-cyclopropyl-N-(3-(4-(cyclopropylamino)-2-methylquinazolin-6-yl)benzyl)-2-fluoro-4-(trifluoromethyl)benzamide]",
32%,"CC(C)Nc1ncnc2ccc(-c3cccc(CN(Cc4ccccc4)C(=O)c4ccco4)c3)cc12 [Example 149, furan-2-carboxylic acid benzyl-[3-(4-isopropylamino-quinazolin-6-yl)-benzyl]-amide]",
62%,"COCC(=O)N(Cc1cccc(-c2ccc3ncnc(NCc4cccc(C)c4)c3c2)c1)C1CC1 [Example 434, N-cyclopropyl-2-methoxy-N-(3-(4-(3-methylbenzylamino)quinazolin-6-yl)benzyl)acetamide]",
74%,"CCCN(Cc1cccc(-c2ccc3ncnc(Nc4ccccc4)c3c2)c1)C(=O)c1ccncc1 [Example 92, N-[3-(4-phenylamino-quinazolin-6-yl)-benzyl]-N-propyl-isonicotinamide]",
,"O=S(=O)(c1c(F)c(F)c(F)c(F)c1F)N(Cc1cc(-c2ccc3ncnc(NC4CC4)c3c2)ccc1Cl)C1CC1 [Example 802, N-(2-chloro-5-(4-(cyclopropylamino)quinazolin-6-yl)benzyl)-N-cyclopropyl-2,3,4,5,6-pentafluorobenzole sulfonamide]",% Inhibition of mGluR5 Receptor (pig) [^3H]-MPEP Bond at 10 μM: 97%
99%,"O=C(c1ccccc1Cl)N(Cc1cccc(-c2ccc3ncnc(NC4CC4)c3c2)c1)C1CC1 [Example 172, 2-chloro-N-cyclopropyl-N-[3-(4-cyclopropylamino-quinazolin-6-yl)-benzyl]-benzamide]",
67%,"CS(=O)(=O)N(Cc1cc(-c2ccc3ncnc(NC4CC4)c3c2)ccn1)C1CC1 [Example 853, N-cyclopropyl-N-((4-(4-(cyclopropylamino)quinazolin-6-yl)pyridin-2-yl)methyl)methane sulfonamide]",
,"O=C(CF)N(Cc1cccc(-c2ccc3ncnc(NC4CC4)c3c2)c1)C1CC1 [Example 208, N-cyclopropyl-N-[3-(4-cyclopropylamino-quinazolin-6-yl)-benzyl]-2-fluoro-acetamide]",IC50 (IC50 mGluR5 Receptor (pig) [^3H]-MPEP Bond): 0.12 µM
72%,"N#CCNCc1cccc(-c2ccc3ncnc(NC4CC4)c3c2)c1 [Example 320, 2-(3-(4-(cyclopropylamino)quinazolin-6-yl)benzylamino)acetonitrile]",
45%,"CCCCC(=O)N(Cc1cc(-c2ccc3ncnc(NC4CC4)c3c2)ccn1)C1CC1 [Example 829, N-cyclopropyl-N-((4-(4-(cyclopropylamino)quinazolin-6-yl)pyridin-2-yl)methyl)pentanamide]",
55%,"Cc1cc(C(=O)N(Cc2cc(-c3ccc4ncnc(NC5CC5)c4c3)ccc2Cl)C2CC2)n(C)n1 [Example 776, N-(2-chloro-5-(4-(cyclopropylamino)quinazolin-6-yl)benzyl)-N-cyclopropyl-1,3-dimethyl-1H-pyrazole-5-carboxamide]",
48%,"CCCN(Cc1cccc(-c2ccc3ncnc(Nc4ccccc4)c3c2)c1)C(=O)c1ccco1 [Example 120, furan-2-carboxylic acid [3-(4-phenylamino-quinazolin-6-yl)-benzyl]-propyl-amide]",
,"CC(=O)N(Cc1ccc(-c2ccc3ncnc(NC4CC4)c3c2)o1)C1CC1 [Example 232, N-cyclopropyl-N-[5-(4-cyclopropylamino-quinazolin-6-yl)-furan-2-yl-methyl]-acetamide]",IC50 [1]: 4.27 µM

inhibition at 10 µM,Compound,further results
63%,"CN(C)CC(=O)N(Cc1cc(-c2ccc3ncnc(NC4CC4)c3c2)ccc1F)C1CC1 [Example 398, N-cyclopropyl-N-(5-(4-(cyclopropylamino)quinazolin-6-yl)-2-fluorobenzyl)-2-(dimethylamino)acetamide]",
,"CC(C)(C)C(=O)N(Cc1cc(-c2ccc3ncnc(NC4CC4)c3c2)ccc1Cl)C1CC1 [Example 785, N-(2-chloro-5-(4-(cyclopropylamino)quinazolin-6-yl)benzyl)-N-cyclopropyl pivalamide]",% Inhibition of mGluR5 Receptor (pig) [^3H]-MPEP Bond at 10 μM: 100%
48%,"Cc1nc(NC2CC2)c2cc(-c3cccc(CN(C(=O)c4cccc(C(F)(F)F)c4)C4CC4)c3)ccc2n1 [Example 462, N-cyclopropyl-N-(3-(4-(cyclopropylamino)-2-methylquinazolin-6-yl)benzyl)-3-(trifluoromethyl)benzamide]",
88%,"Cc1cc2ncnc(NC3CC3)c2cc1-c1cccc(CN(C(=O)c2ccc(C(F)(F)F)cc2F)C2CC2)c1 [Example 668, N-cyclopropyl-N-(3-(4-(cyclopropylamino)-7-methylquinazolin-6-yl)benzyl)-2-fluoro-4-(trifluoromethyl)benzamide]",
91%,"O=C(c1c(F)c(F)c(F)c(F)c1F)N(Cc1cc(-c2ccc3ncnc(NC4CC4)c3c2)ccc1F)C1CC1 [Example 389, N-cyclopropyl-N-(5-(4-(cyclopropylamino)quinazolin-6-yl)-2-fluorobenzyl)-2,3,4,5,6-pentafluorobenzamide]",
40%,"Cc1nc(NC2CC2)c2cc(-c3ccc(F)c(CN(C(=O)c4ccccc4)C4CC4)c3)ccc2n1 [Example 550, N-cyclopropyl-N-(5-(4-(cyclopropylamino)-2-methylquinazolin-6-yl)-2-fluorobenzyl)benzamide]",
,"COc1ccc(CN(C(=O)c2ccccc2)C2CC2)cc1-c1ccc2ncnc(NC3CC3)c2c1 [Example 268, N-cyclopropyl-N-(3-(4-(cyclopropylamino)quinazolin-6-yl)-4-methoxybenzyl)benzamide]",IC50 [1]: 5.41 µM
32%,"CC(C)CN(Cc1cccc(-c2ccc3ncnc(N4CCOCC4)c3c2)c1)C(=O)CN(C)C [Example 31, 2-dimethylamino-N-isobutyl-N-[3-(4-morpholin-4-yl-quinazolin-6-yl)-benzyl]-acetamide]",
,"CC(c1cccc(-c2ccc3ncnc(NC4CC4)c3c2)c1)N(C(=O)c1ccccc1)C1CC1 (centres unmarked) [Example 233, N-cyclopropyl-N-{1-[3-(4-cyclopropylamino-quinazolin-6-yl)-phenyl]-ethyl}-benzamide]",IC50 [1]: 0.82 µM
,"N#CCC(=O)N(Cc1cc(-c2ccc3ncnc(NC4CC4)c3c2)ccc1F)C1CC1 [Example 277, 2-cyano-N-cyclopropyl-N-(5-(4-(cyclopropylamino)quinazolin-6-yl)-2-fluorobenzyl)acetamide]",IC50 [1]: 0.04 µM
,"O=C(c1ccccc1)N(Cc1cc(-c2ccc3ncnc(NC4CC4)c3c2)ccc1Cl)C1CC1 [Example 783, N-(2-chloro-5-(4-(cyclopropylamino)quinazolin-6-yl)benzyl)-N-cyclopropyl benzamide]",% Inhibition of mGluR5 Receptor (pig) [^3H]-MPEP Bond at 10 μM: 93%
95%,"O=C(c1cccs1)N(Cc1cc(-c2ccc3ncnc(NC4CC4)c3c2)ccc1Cl)C1CC1 [Example 754, N-(2-chloro-5-(4-(cyclopropylamino)quinazolin-6-yl)benzyl)-N-cyclopropylthiophene-2-carboxamide]",
46%,"CC(C)CN(Cc1cccc(-c2ccc3ncnc(N4CCOCC4)c3c2)c1)C(=O)c1cccs1 [Example 29, thiophene-2-carboxylic acid isobutyl-[3-(4-morpholin-4-yl-quinazolin-6-yl)-benzyl]-amide]",
91%,"O=C(c1cccc(F)c1)N(Cc1cc(-c2ccc3ncnc(NC4CC4)c3c2)ccc1F)C1CC1 [Example 374, N-cyclopropyl-N-(5-(4-(cyclopropylamino)quinazolin-6-yl)-2-fluorobenzyl)-3-fluorobenzamide]",
34%,"CCN(CC)c1ncnc2ccc(-c3cccc(CN(C)C(=O)c4ccsc4)c3)cc12 [Example 70, thiophene-3-carboxylic acid [3-(4-diethylamino-quinazolin-6-yl)-benzyl]-methyl-amide]",
71%,"O=C(c1cccs1)N(Cc1cc(-c2ccc3ncnc(NC4CC4)c3c2)ccn1)C1CC1 [Example 811, N-cyclopropyl-N-((4-(4-(cyclopropylamino)quinazolin-6-yl)pyridin-2-yl)methyl)thiophene-2-carboxamide]",
52%,"CNc1ncnc2ccc(-c3ccc(F)c(CN(C)C(=O)c4ccc(C(F)(F)F)cc4F)c3)cc12 [Example 593, 2-fluoro-N-(2-fluoro-5-(4-(methylamino)quinazolin-6-yl)benzyl)-N-methyl-4-(trifluoromethyl)benzamide]",
